Data reported in patent US6127382A, “Amines substituted with a tetrahydroquinolinyl group an aryl or heteroaryl group and an alkyl group, having retinoid-like biological activity” (Allergan Sales, Inc., priority 1999, dated 2000).

Experiments:
[1] = biological target: T1, RXRα (Homo sapiens, UniProt P19793); experiment: holoreceptor transactivation assay, RXRα; assay type: cell-based; conditions: for EC50: holoreceptor assay, read-out: RXR Trans EC50 α; for Emax: relative to 10^-6 M cyclopropyl penta-2,4-dienoic acid reference, read-out: % efficacy, RXRα transactivation
T1 construct: expressed in transfected cells
T1 sequence (P19793 1-462): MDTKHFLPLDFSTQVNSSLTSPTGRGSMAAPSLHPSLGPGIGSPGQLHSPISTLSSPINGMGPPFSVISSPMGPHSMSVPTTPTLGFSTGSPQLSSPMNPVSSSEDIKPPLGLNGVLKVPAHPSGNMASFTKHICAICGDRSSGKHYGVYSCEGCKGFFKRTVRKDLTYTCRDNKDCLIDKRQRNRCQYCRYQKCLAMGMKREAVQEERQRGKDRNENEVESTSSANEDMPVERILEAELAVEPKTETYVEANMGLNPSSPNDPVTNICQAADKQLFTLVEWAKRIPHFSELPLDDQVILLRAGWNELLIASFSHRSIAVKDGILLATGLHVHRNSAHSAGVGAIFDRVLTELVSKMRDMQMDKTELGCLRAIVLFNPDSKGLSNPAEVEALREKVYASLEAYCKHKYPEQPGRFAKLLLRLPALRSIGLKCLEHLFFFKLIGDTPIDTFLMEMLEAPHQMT
Text: (§1) Other assays described below, measure the ability of the compounds of the present invention to bind to, and/or activate various retinoid receptor subtypes. When in these assays a compound binds to a given receptor subtype and activates the transcription of a reporter gene through that subtype, then the compound is considered an agonist of that receptor subtype. […] In the below described assays the ability of the compounds to bind to RARα, RARβ, RARγ, RXRα, RXRβ and RXRγ receptors, and the ability or inability of the compounds to activate transcription of a reporter gene through these receptor subtypes can be tested. […] However, some of the compounds of the invention may behave as retinoid antagonists or partial antagonists and/or as inverse agonists. Because of the complex distribution of the different retinoid receptors in various organs of the mammalian body partial agonists and partial antagonists and compounds which have the characteristics of both may lend themselves to particularly useful therapeutic applications and may avoid serious side effects of conventional retinoid drugs.
(§2) A holoreceptor transactivation assay and a ligand binding assay which measure the antagonist/agonist like activity of the compounds of the invention, or their ability to bind to the several retinoid receptor subtypes, respectively, are described in published PCT Application No. WO WO93/11755 (particularly on pages 30-33 and 37-41) published on Jun. 24, 1993, the specification of which is also incorporated herein by reference. A detailed experimental procedure for holoreceptor transactivations has been described by Heyman et al. Cell 68, 397-406, (1992); Allegretto et al. J. Biol. Chem. 268, 26625-26633, and Mangelsdorf et al. The Retinoids: Biology, Chemistry and Medicine, pp 319-349, Raven Press Ltd., New York, which are expressly incorporated herein by reference. The results obtained in this assay are expressed in EC50 numbers, as they are also in the chimeric receptor transactivation assay. The results of ligand binding assay are expressed in Kd numbers. (See Cheng et al. Biochemical Pharmacology Vol. 22 pp 3099-3108, expressly incorporated herein by reference.)
(§3) Table 1 discloses the activity of certain exemplary compounds of the invention in the above-described chimeric receptor transactivation assay, holoreceptor transactivation assay and a ligand binding assays. Particularly, the transactivation data pertaining to RAR receptors were obtained in the chimeric assay, and the data pertaining to transactivation of RXR receptors were obtained in the holoreceptor transactivation assay.

[2] = biological target: T2, RARα (Homo sapiens, UniProt P10276); experiment: ligand binding assay, RARα; conditions: read-out: RAR Bind Ki α
T2 sequence (P10276 1-462): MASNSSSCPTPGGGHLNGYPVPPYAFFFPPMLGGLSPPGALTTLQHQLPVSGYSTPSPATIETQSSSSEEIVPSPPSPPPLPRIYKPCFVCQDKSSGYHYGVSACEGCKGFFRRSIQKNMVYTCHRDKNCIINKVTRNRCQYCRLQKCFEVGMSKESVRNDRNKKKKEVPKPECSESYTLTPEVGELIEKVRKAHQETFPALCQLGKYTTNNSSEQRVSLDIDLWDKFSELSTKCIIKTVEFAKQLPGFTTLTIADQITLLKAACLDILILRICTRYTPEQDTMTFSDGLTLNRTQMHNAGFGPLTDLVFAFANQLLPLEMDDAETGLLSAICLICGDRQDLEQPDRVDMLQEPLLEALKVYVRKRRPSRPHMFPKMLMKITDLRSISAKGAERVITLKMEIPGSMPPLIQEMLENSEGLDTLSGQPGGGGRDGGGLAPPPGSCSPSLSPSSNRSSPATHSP
Text: as §1, §2, §3

[3] = biological target: T3, RXRβ (Mus musculus, UniProt P28704); experiment: holoreceptor transactivation assay, RXRβ; assay type: cell-based; conditions: for EC50: holoreceptor assay, read-out: RXR Trans EC50 β; for Emax: relative to 10^-6 M cyclopropyl penta-2,4-dienoic acid reference, read-out: % efficacy, RXRβ transactivation
T3 construct: expressed in transfected cells
T3 sequence (P28704 1-520): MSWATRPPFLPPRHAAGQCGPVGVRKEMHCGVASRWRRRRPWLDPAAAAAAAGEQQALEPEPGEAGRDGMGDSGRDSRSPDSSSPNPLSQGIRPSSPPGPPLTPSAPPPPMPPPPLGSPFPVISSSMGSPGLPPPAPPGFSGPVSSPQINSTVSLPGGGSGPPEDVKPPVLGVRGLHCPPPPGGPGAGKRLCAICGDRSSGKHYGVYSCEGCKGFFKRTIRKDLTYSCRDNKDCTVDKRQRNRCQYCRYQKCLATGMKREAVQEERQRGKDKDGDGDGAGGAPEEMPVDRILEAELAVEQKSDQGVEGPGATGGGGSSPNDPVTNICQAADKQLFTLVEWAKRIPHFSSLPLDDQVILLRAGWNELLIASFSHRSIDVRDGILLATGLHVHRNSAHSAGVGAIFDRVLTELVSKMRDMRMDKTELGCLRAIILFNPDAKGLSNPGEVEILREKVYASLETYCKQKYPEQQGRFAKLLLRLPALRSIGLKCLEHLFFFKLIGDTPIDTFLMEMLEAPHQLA
Text: as §1, §2, §3

| EC50 [1] | Emax [1] | Ki [2] | EC50 [3] | Emax [3] | SMILES |
| --- | --- | --- | --- | --- | --- |
| 0.032 µM | 92% | > 10 µM | 0.374 µM | 119% | Cc1cc2c(cc1N(C)c1ccc(C(=O)O)cc1)N(C(C)C)CCC2(C)C [Compound 51, 4-[(1-Isopropyl-4,4,6-trimethyl-1,2,3,4-tetrahydro-quinolin-7-yl)-methyl-amino]-benzoic acid] |
| 0.0006 µM | 114% | > 10 µM | 0.007 µM | 102% | CCN(c1ccc(C(=O)O)cc1)c1ccc2c(c1)N(C(C)C)CCC2(C)C [Compound 38, 4-[(1-Isopropyl-4,4-dimethyl-1,2,3,4-tetrahydroquinolin-7-yl)ethylamino]benzoic acid] |
| 0.0002 µM | 92% | 3.01 µM | 0.002 µM | 93% | CCCN(c1ccc(C(=O)O)cc1)c1cc2c(cc1C)C(C)(C)CCN2C(C)C [Compound 53, 4-[(1-Isopropyl-4,4,6-trimethyl-1,2,3,4-tetrahydro-quinolin-7-yl)-propyl-amino]-benzoic acid] |
| 0.001 µM | 121% | 6.7 µM | 0.01 µM | 97% | CC(C)CN(c1ccc(C(=O)O)cc1)c1ccc2c(c1)N(C(C)C)CCC2(C)C [Compound 39, 4-[(1-Isopropyl-4,4-dimethyl-1 2,3,4-tetrahydroquinolin-7-yl)isobutylamino]benzoic acid] |
| 0.004 µM | 103% | > 10 µM | 0.027 µM | 104% | Cc1cc2c(cc1Nc1ccc(C(=O)O)cc1)N(C(C)C)CCC2(C)C [Compound 50, 4-(1-Isopropyl-4,4,6-trimethyl-1,2,3,4-tetrahydro-quinolin-7-ylamino)-benzoic acid] |
| 0.0002 µM | 94% | 9.6 µM | 0.002 µM | 96% | CCN(c1ccc(C(=O)O)cc1)c1cc2c(cc1C)C(C)(C)CCN2C(C)C [Compound 52, 4-[-(1-Isopropyl-4,4,6-trimethyl-1,2,3,4-tetrahydro-quinolin-7-yl)ethylamino]-benzoic acid] |
| 0.0001 µM | 110% | 5.1 µM | 0.003 µM | 93% | CC(C)N1CCC(C)(C)c2ccc(N(CC3CC3)c3ccc(C(=O)O)cc3)cc21 [Compound 40, 4-[(1-Isolpropyl-4,4-dimethyl-1,2,3,4-tetrahydroquinolin-7-yl)(cylopropylmethyl)amino]benzoic acid] |

The remaining lines, values behind:

| SMILES | EC50 [1] | Emax [1] | Ki [2] | EC50 [3] | Emax [3] |
| --- | --- | --- | --- | --- | --- |
| Cc1cc2c(cc1N(C)c1ccc(C(=O)O)cc1)C(C)(C)CCN2C(C)C [Compound 22, 4-[(1-Isopropyl-4,4,7-trimethyl-1,2,3,4-tetrahydroquinolin-6-yl)methylamino]benzoic acid] | 1 µM | 80% | > 10 µM | > 1 µM | 15% |
| CCN(c1ccc(C(=O)O)cc1)c1cc2c(cc1C)N(C(C)C)CCC2(C)C [Compound 24, 4-[(1-Isopropyl-4,4,7-trimethyl-1,2,3,4-tetrahydroquinolin-6-yl)ethylamino]benzoic acid] | 0.036 µM | 90% | > 10 µM | 1 µM | 70% |
| CC(C)CCN(c1ccc(C(=O)O)cc1)c1ccc2c(c1)C(C)(C)CCN2C(C)C [Compound 14, 4-[(1-Isopropyl-4,4-dimethyl-1,2,3,4-tetrahydroquinolin-6-yl)(3-methylbutyl)amino]-benzoic Acid] | – | – | 0.34 µM | – | – |
| Cc1cc2c(cc1N(CC1CC1)c1ccc(C(=O)O)cc1)C(C)(C)CCN2C(C)C [Compound 26, 4-[(1-Isopropyl-4,4,7-trimethyl-1,2,3,4-tetrahydro-quinolin-6-yl)(cyclopropylmethyl)amino]benzoic acid] | > 1 µM | 25% | 15 µM | > 1 µM | 10% |
| CCN(c1ccc(C(=O)O)cc1)c1ccc2c(c1)C(C)(C)CCN2C(C)C [Compound 12, 4-[(1-Isopropyl-4,4-dimethyl-1,2,3,4-tetrahydroquinolin-6-yl)ethylamino]benzoic acid] | 0.078 µM | 134% | 0.467 µM | 1 µM | 75% |
| CCN(c1ccc(C(=O)O)cc1)c1ccc2c(c1)C(C)(C)CC(=O)N2C(C)C [Compound 6, 4-[(1-Isopropyl-4,4-dimethyl-2-oxo-1,2,3,4-tetrahydroquinolin-6-yl)ethylamino]benzoic Acid] | 1 µM | 50% | 10 µM | > 1 µM | 40% |
| CC(C)N1CCC(C)(C)c2cc(N(C)c3ccc(C(=O)O)cc3)ccc21 [Compound 10, 4-[(1-Isopropyl-4,4-dimethyl-1,2,3,4-tetrahydroquinolin-6-yl)methylamino]benzoic Acid] | 1 µM | 70% | > 10 µM | – | – |
